{"source": "patent US20080064040A1", "about": "“Monitoring gene silencing and annotating gene function in living cells” (Odyssey Thera, Inc., priority 2003, published 2008)", "test_system": "phosphorylation of the ERK1 and ERK2 protein kinases", "test": "Phospho-ERK (T202/Tyr204) immunofluorescence in EGF-treated HEK 293T cells", "type": "cell-based, human", "conditions": "EGF vs unstimulated cells, FIG. 11B", "protocol": "Cells are transfected with a collection of siRNAs, and cultured for 48 hours before fixing. Fixed cells are probed with antibodies that specifically recognize the MAPK/ERK protein kinases only when they are phosphorylated on Threonine 202 and Tyrosine 204 in the activation loop. […] Changes in the level and sub-cellular localization of phosphorylated proteins following treatment with an annotation reagent (here siRNA) indicates a functional connection between the annotation reagent and the target of interest. […] Here, 24 individual siRNA pools were transfected into human HEK cells, and their effects on the phosphorylation of the ERK1 and ERK2 protein kinases was assessed by immunofluorescence analysis.\nHuman HEK 293T cells were plated at 12,000 cells/well, and transfected with 40 ng of siRNA pools targeting the indicated proteins using Lipofectamine 2000 (Invitrogen, Carlsbad Calif.). 24 hours after transfection, cells were cultured in 0.25% serum for 24 hours, then treated with EGF (Sigma; 100 ng/ml) for 5 minutes prior to fixation. For immunofluorescence, cells were rinsed with PBS, fixed with 4% formaldehyde in PBS, and permeabilized using 0.25% Triton X-100. Non-specific immunoreactivity was blocked by incubating cells with 3% BSA in PBS. […] Automated fluorescence image acquisition was carried out using Discovery-1 (Universal Imaging/Molecular Devices)."}
{"substance": "EGF: epidermal growth factor (Sigma), stimulus for ERK phosphorylation (NSDSECPLSHDGYCLHDGVCMYIEALDKYACNCVVGYIGERCQYRDLKWWELR; UniProt P01133 971-1023, looked up)", "values": [{"measurement": "level of phosphorylated ERK after growth factor treatment", "value": "large increase in phosphorylated ERK"}]}
